# Source: US6875760B2 (Novo Nordisk A/S, priority 1999, dated 2005)
# Biological target: T1, human glucagon receptor (Homo sapiens, UniProt P47871)
# T1 construct: expressed in transfected cells; host or cells: BHK (baby hamster kidney) cells
# Test: Glucagon Binding Assay (III)
# Conditions: BHK cell membranes, WGA SPA beads, 125I-glucagon; read-out: Glu Bd Assay (III) IC50
# In short: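 Membranes from BHK cells transfected with the human receptor, prepared at 4 °C, were used in a WGA-bead scintillation proximity binding format. Plates were shaken for 4 hours, left to settle 8–48 hours and then counted. Non-specific binding was defined with 500 nM glucagon.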
# T1 sequence (P47871 26-477): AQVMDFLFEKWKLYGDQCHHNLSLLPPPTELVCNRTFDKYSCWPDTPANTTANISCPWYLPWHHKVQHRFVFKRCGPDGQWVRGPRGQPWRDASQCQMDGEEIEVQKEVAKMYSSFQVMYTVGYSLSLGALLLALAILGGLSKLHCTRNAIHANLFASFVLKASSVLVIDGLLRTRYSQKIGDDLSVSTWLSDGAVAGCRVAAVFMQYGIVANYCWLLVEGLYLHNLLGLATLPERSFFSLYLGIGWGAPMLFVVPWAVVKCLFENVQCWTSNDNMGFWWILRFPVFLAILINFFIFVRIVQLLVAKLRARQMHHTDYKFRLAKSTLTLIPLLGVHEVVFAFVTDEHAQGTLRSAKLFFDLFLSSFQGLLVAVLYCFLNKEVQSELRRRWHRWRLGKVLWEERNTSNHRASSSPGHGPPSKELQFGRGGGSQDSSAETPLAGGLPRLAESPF
row,Compound,IC50 [nM]
1,"CCOC(=O)c1ccc2nc(NC(=O)N(Cc3ccc(C(=O)Nc4nn[nH]n4)cc3)c3ccc(C4CCCCC4)cc3)sc2c1 [Example 343, 2-{3-(4-Cyclohexylphenyl)-3-[4-(2H-tetrazol-5-ylcarbamoyl)benzyl]ureido}benzothiazole-6-carboxylic acid ethyl ester]",99
2,"CCCCC(CC)CN(Cc1ccc(C(=O)NCCC(=O)O)cc1)C(=O)Nc1cccc(C(=O)OCC)c1 (centres unmarked) [Example 40, 3-[3-[4-(2-Carboxyethylcarbamoyl)benzyl]-3-(2-ethylhexyl)ureido]benzoic acid ethyl ester]",821
3,"O=C(Nc1nn[nH]n1)c1ccc(CN(C(=O)c2ccc(Cc3ccccc3)cc2)c2ccc(C3CCCCC3)cc2)cc1 [Example 508, 4-{[(4-Cyclohexylphenyl)-(4-benzylbenzoyl)amino]methyl}-N-(2H-tetrazol-5-yl)benzamide]",198
4,"O=C(Nc1nn[nH]n1)c1ccc(CN(C(=O)NCc2cc(F)cc(C(F)(F)F)c2)c2ccc(C3CCCCC3)cc2)cc1 [Example 270, 4-[1-(4-Cyclohexylphenyl)-3-(3-fluoro-5-trifluoromethylbenzyl)ureidomethyl]-N-(2H-tetrazol-5-yl)benzamide]",64
5,"CS(=O)(=O)c1ccc(OC(=O)N(Cc2ccc(C(=O)NCCC(=O)O)cc2)c2ccc(C3CCCCC3)cc2)cc1 [Example 621, 3-(4-{[(4-Cyclohexylphenyl)-(4-(methylsulfonyl)phenoxycarbonyl)amino]methyl}benzoylamino)propionic acid]",4600
6,"O=C(O)CCNC(=O)c1ccc(CN(C(=O)Nc2ccc(OC(F)(F)F)cc2)C(=O)Nc2ccc(OC(F)(F)F)cc2)cc1 [Example 383, 3-{4-[1,5-Bis(4-trifluoromethoxyphenyl)-3-biuretmethyl]benzoylamino}propionic acid]",931
7,"COc1cc(NC(=O)N(Cc2ccc(C(=O)Nc3nn[nH]n3)cc2)C2CCC(C(C)(C)C)CC2)cc(C(F)(F)F)c1 (centres unmarked) [Example 602, 4-[1-(4-tert-Butylcyclohexyl)-3-(3-methoxy-5-trifluoromethylphenyl)ureidomethyl]-N-(2H-tetrazol-5-yl)benzamide]",26
8,"O=C(Nc1nn[nH]n1)c1ccc(CN(C(=O)Nc2cccc(S(=O)(=O)C(F)(F)F)c2)c2ccc(C3CCCCC3)cc2)cc1 [Example 303, 4-[1-(4-Cyclohexylphenyl)-3-(3-trifluoromethylsulfonylphenyl)ureidomethyl]-N-(2H-tetrazol-5-yl)benzamide]",53
9,"O=C(Nc1nn[nH]n1)c1ccc(CN(C(=O)Cc2ccc(-c3ccccc3)cc2)c2ccc(C3CCCCC3)cc2)cc1 [Example 497, 4-{[(2-Biphenyl-4-yl-acetyl)-(4-cyclohexylphenyl)amino]methyl}-N-(2H-tetrazol-5-yl)benzamide]",589
10,"CC(C)(C)c1ccc(N(Cc2ccc(C(=O)NCCC(=O)O)cc2)C(=O)Oc2cccc(OC(F)(F)F)c2)cc1 [Example 412, 3-(4-{[(4-tert-Butylphenyl)-(3-trifluoromethoxyphenoxycarbonyl)amino]methyl}benzoylamino)propionic acid]",604
11,"CCCCN1C(=O)c2ccc(NC(=O)N(Cc3ccc(C(=O)NCCC(=O)O)cc3)c3ccc(C4CCCCC4)cc3)cc2C1=O [Example 635, 3-{4-[3-(N′-Butylphthalimid-4-yl)-1-(4-cyclohexylphenyl)ureidomethyl]benzoylamino}propionic acid]",18
12,"CCCCOc1ccc(NC(=O)N(Cc2ccc(C(=O)Nc3nn[nH]n3)cc2)c2ccc(C(C)(C)C)cc2)cc1S(C)(=O)=O [Example 367, 4-[3-(4-Butoxy-3-methylsulfonylphenyl)-1-(4-tert-butylphenyl)ureidomethyl]-N-(2H-tetrazol-5-yl)benzamide]",34
13,"Cc1ccc(NC(=O)N(Cc2ccc(C(=O)NCCS(=O)(=O)O)cc2)c2ccc(C(C)(C)C)cc2)cc1S(C)(=O)=O [Example 569, 2-{4-[1-(4-tert-Butylphenyl)-3-(3-methylsulfonyl-4-methylphenyl)ureidomethyl]-benzoylamino}ethanesulfonic acid]",1770
14,"O=C(O)CCNC(=O)c1ccc(CN(C(=O)Oc2ccc([N+](=O)[O-])cc2)c2ccc(C3CCCCC3)cc2)cc1 [Example 413, 3-(4-{[(4-Cyclohexylphenyl)-(4-nitrophenoxycarbonyl)amino]methyl}benzoylamino)propionic acid]",1200
15,"O=C(Nc1nn[nH]n1)c1ccc(CN(C(=O)Nc2ccc3c(c2)C(F)(F)OC(F)(F)O3)c2ccc(C3CCCCC3)cc2)cc1 [Example 366, 4-[1-(4-Cyclohexylphenyl)-3-(2,2,4,4-tetrafluoro-4H-benzo[1,3]dioxin-6-yl)ureidomethyl]-N-(2H-tetrazol-5-yl)benzamide]",12
16,"CCCCOc1ccc(N(Cc2ccc(C(=O)NCCC(=O)O)cc2)C(=O)Nc2ccc(OC(F)(F)F)cc2)cc1 [Example 435, 3-{4-[1-(4-Butoxyphenyl)-3-(4-trifluoromethoxyphenyl)ureidomethyl]benzoylamino}propionic acid]",374
17,"CCCCN1C(=O)c2ccc(NC(=O)N(Cc3ccc(C(=O)NCCC(=O)O)cc3)c3ccc(C(C)(C)C)cc3)cc2C1=O [Example 626, 3-{4-[3-(N′-Butylphthalimid-4-yl)-1-(4-tert-butylphenyl)ureidomethyl]benzoylamino}propionic acid]",38
18,"CC1CCC(N(Cc2ccc(C(=O)NCCC(=O)O)cc2)C(=O)Nc2ccc(OC(F)(F)F)cc2)CC1 (centres unmarked) [Example 15, 3-{4-[1-(4-Methylcyclohexyl)-3-(4-trifluoromethoxyphenyl)ureidomethyl]benzoylamino}propionic acid]",826
19,"CC(C)(C)[C@H]1CC[C@@H](N(Cc2ccc(C(=O)Nc3nn[nH]n3)cc2)C(=O)Nc2cc(C(F)(F)F)cc(C(F)(F)F)c2)CC1 [Example 603, 4-[3-(3,5-Bis(trifluoromethyl)phenyl)-1-(cis-4-tert-butylcyclohexyl)ureidomethyl]-N-(2H-tetrazol-5-yl)benzamide]",26
20,"O=C(Nc1nn[nH]n1)c1ccc(CN(C(=O)Nc2ccc(F)c(C(F)(F)F)c2)c2ccc(C3CCCCC3)cc2)cc1 [Example 600, 4-[1-(4-Cyclohexylphenyl)-3-(4-fluoro-3-trifluoromethylihenyl)ureidomethyl]-N-(2H-tetrazol-5-yl)benzamide]",9

# Second part, the compound after the results:
row,IC50 [nM],Compound
1,1550,"O=C(O)CCNC(=O)c1ccc(CN(C(=O)c2cc(-c3ccc(Cl)cc3)cs2)c2ccc(C3CCCCC3)cc2)cc1 [Example 560, 3-(4-{[[4-(4-Chlorophenyl)thiophene-2-carbonyl]-(4-cyclohexylphenyl)amino]methyl}benzoylamino)propionic acid]"
2,136,"CC(C)(C)C1CCC(N(Cc2ccc(C(=O)Nc3nn[nH]n3)cc2)C(=O)/C=C/c2cccc(Cl)c2)CC1 (centres unmarked) [Example 551, 4-({(4-tert-Butylcyclohexyl)-[3-(3-chlorophenyl)acroloyl]amino}methyl)-N-(2H-tetrazol-5-yl)benzamide]"
3,294,"CCC[C@H]1CC[C@@H](N(Cc2ccc(C(=O)NCCC(=O)O)cc2)C(=O)Nc2ccc(OC(F)(F)F)cc2)CC1 [Example 77, 3-{4-[1-(4-cis-Propylcyclohexyl)-3-(4-trifluoromethoxyphenyl)ureidomethyl]benzoylamino}propionic acid]"
4,64,"O=C(Nc1nn[nH]n1)c1ccc(CN(C(=O)NCc2ccccc2Br)c2ccc(C3CCCCC3)cc2)cc1 [Example 345, 4-[3-(2-Bromobenzyl)-1-(4-cyclohexylphenyl)ureidomethyl]-N-(2H-tetrazol-5-yl)benzamide]"
5,59,"CC(C)C1CCC(N(Cc2ccc(C(=O)NCCC(=O)O)cc2)C(=O)Nc2ccc(OC(F)(F)F)cc2)CC1 (centres unmarked) [Example 82, 3-{4-[1-(4-Isopropylcyclohexyl)-3-(4-trifluoromethoxyphenyl)ureidomethyl]benzoylamino}propionic acid]"
6,385,"CSc1cccc(NC(=O)N(Cc2ccc(C(=O)NCCC(=O)O)cc2)C2CCC(C(C)(C)C)CC2)c1 (centres unmarked) [Example 26, 3-{4-[1-(4-tert-Butylcyclohexyl)-3-(3-methylsulfanylphenyl)ureidomethyl]benzoylamino}propionic acid]"
7,2110,"CC(C)Oc1ccc(C(=O)N(Cc2ccc(C(=O)NCCC(=O)O)cc2)c2ccc(C3CCCCC3)cc2)cc1 [Example 523, 3-(4-{[(4-Cyclohexylphenyl)-(4-isopropoxybenzoyl)amino]methyl}benzoylamino)propionic acid]"
8,7,"O=C(O)CCNC(=O)c1ccc(CN(C(=O)Nc2ccc3c(c2)C(=O)N(CC2CC2)C3=O)c2ccc(C3=CCCCC3)cc2)cc1 [Example 645, 3-{4-[1-(4-Cyclohex-1-enylphenyl)-3-(N′-[cyclopropylmethyl]phthalimid-4-yl)ureidomethyl]benzoylamino}propionic acid]"
9,10,"CC(C)(C)c1ccc(N(Cc2ccc(C(=O)Nc3nn[nH]n3)cc2)C(=O)Nc2ccc(OC(F)(F)F)cc2)cc1 [Example 374, 4-[1-(4-tert-Butylphenyl)-3-(4-trifluoromethoxyphenyl)ureidomethyl]-N-(2H-tetrazol-5-yl)benzamide]"
10,58,"CC(NC(=O)N(Cc1ccc(C(=O)Nc2nn[nH]n2)cc1)c1ccc(C2CCCCC2)cc1)c1ccc(Cl)cc1 (centres unmarked) [Example 336, 4-[3-[1-(4-Chlorophenyl)ethyl]-1-(4-cyclohexylphenyl)ureidomethyl]-N-(2H-tetrazol-5-yl)benzamide]"

# Same assay, conditions: Glu Bd Assay (III) IC50 (nM), BHK cell membranes, WGA SPA beads, 125I-glucagon
row,Compound,IC50 [nM]
1,"CC(C)(C)[C@H]1CC[C@H](N(Cc2ccc(C(=O)NCCC(=O)O)cc2)C(=O)Nc2ccccc2)CC1 [Example 243, 3-{4-[1-(trans-4-tert-Butylcyclohexyl)-3-phenylureidomethyl]benzoylamino}propionic acid]",1090
2,"CC(C)(C)[C@H]1CC[C@H](N(Cc2ccc(C(=O)NCCC(=O)O)cc2)C(=O)Nc2ccc(OCC3CC3)cc2)CC1 [Example 241, 3-{4-[1-(trans-4-tert-Butylcyclohexyl)-3-(4-cyclopropylmethoxyphenyl)ureidomethyl]benzoylamino}propionic acid]",140
